According to US12473295B2, “Substituted straight chain spiro derivatives” (Janssen Pharmaceutica NV, priority 2019, dated 2025):
Counter-ions that a name gives are not always drawn.

Assays:
[1] = Metabolic stability in human liver microsomes; format: in vitro ADME; details: human liver microsomes 0.5 mg/mL, 1 μM test compound, pH 7.4; read-out: Human LM Clint
Experimental: (§1) 4) Metabolic Stability in Human/Mouse Liver Microsomes
(§2) The objective of this study is to measure in vitro metabolic stability of test compound(s) in human and mouse liver microsomes and provide quantitative information on the rate of metabolic turnover (i.e. determination of the apparent intrinsic clearance of test).
(§3) Test items were prepared at a stock concentration of 10 mM in DMSO. For determination of metabolic turnover, a final working solution was prepared by adding 2 μL of 10 mM DMSO stock solution for test compound or positive control compounds to 198 μL of acetonitrile (100 μM final concentration).
(§4) Incubations were performed as follows: First, liver microsomes were thawed on ice and a master solution containing liver microsomes in 100 mM PBS (phosphate-buffered saline) at pH 7.4 is prepared. Next, the liver microsomes solution was added to the incubation plates and 10 mM NADPH (Nicotinamide-adenine dinucleotide phosphate) was added (MW: 833.4 g/mol; Roche Diagnostics GmbH, Germany. Dissolved in phosphate buffer (100 mmol/L, pH 7.4)). The mixture was mixed for 10 seconds and pre-warmed in the incubation plate at 37° C. for 10 minutes. The metabolic reaction was initiated with the addition of 5 μL of the 100 μM working solution for test compound or positive control compounds to incubation plate (final test item concentration=1 μM). The reaction final mixture should contain 1 mM NADPH, 0.5 mg/mL microsomes protein and 1 μM test compound or positive control compound in 100 mM PBS at pH 7.4. The percentage of organic solvent in incubation mixture is 1% with DMSO ≤0.02%.
(§5) The reaction was quenched by transferring 50 μL of the incubated mixture at selected time points into the quenching plate containing 200 μL of cold methanol. After sampling of all the timepoints the quenching plate was centrifuged at 4000 rpm for 40 minutes to precipitate protein. A total of 90 μL of the supernatant was transferred to an analysis plate and ultra-pure H2O water is added into each well for LC/MS/MS analysis. All incubations and analysis were performed in duplicate.
(§6) All calculations were carried out using Microsoft Excel. The slope value, k, was determined by linear regression of the natural logarithm of the remaining percentage of the parent drug vs. incubation time curve.
(§7) The in vitro half-life (in vitro tin) was determined from the slope value: in vitro t1/2=−(0.693/k)
(§8) Conversion of the in vitro tin (in min) into the in vitro intrinsic clearance (in vitro CLint, in μL/min/mg proteins) was done using the following equation: […]

MEIS1 mRNA = MEIS1 mRNA expression assay (Quantigene Singleplex) in MOLM14 cells; format: cell-based, human; details: Homo sapiens, MOLM-14, 48 h, 48 hours incubation;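 also: MEIS1 transcript levels read by probe hybridization and normalized to RPL28 mRNA, with IC50 fitted to fold changes across a rising compound concentration series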
[2] = target: menin/MLL (terbium chelate-labeled menin, FITC-MBM1 peptide) (Homo sapiens (Human), UniProt O00255); test: Menin/MLL homogenous time-resolved fluorescence (HTRF) assay; format: binding; details: HTRF-30 min incubation IC50, 30 min incubation;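 also: IC50 from percent inhibition of HTRF signal, normalized between wells without competitor and wells with a saturating competitor that displaces FITC-MBM1 from His-tagged menin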
[3] = Metabolic stability in mouse liver microsomes; format: in vitro ADME; details: mouse liver microsomes 0.5 mg/mL, 1 μM test compound, pH 7.4; read-out: Mouse LM Clint
Experimental: as §1, §2, §3, §4, §5, §6, §7, §8

OCI-AML3 cells = test: Proliferation assay (spheroid growth, 8 days), OCI-AML3; format: cell-based, human; details: Homo sapiens, OCI-AML-3, […], OCI-AML3, 8 days
How it was run: (§9)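 Spheroid size on day 8, taken as live-cell imaging confluence, served as readout after 8-day compound exposure (0.3% DMSO, 37 °C, 5% CO2) in round-bottom low-attachment wells. Seeding was 200 cells for MOLM14 and OCI-AML3, 300 for KO-52. IC50 came from % effect versus DMSO and reference baseline, fitted with variable slope.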

KO-52 cells = test: Proliferation assay (spheroid growth, 8 days), KO-52 control cell line; format: cell-based, human; details: Homo sapiens, […], read-out: spheroid assay_OneTime KO-52 IC50
How it was run: as §9

Sequence of menin/MLL (terbium chelate-labeled menin, FITC-MBM1 peptide) (O00255 other isoform, or with tags, fused parts or gaps): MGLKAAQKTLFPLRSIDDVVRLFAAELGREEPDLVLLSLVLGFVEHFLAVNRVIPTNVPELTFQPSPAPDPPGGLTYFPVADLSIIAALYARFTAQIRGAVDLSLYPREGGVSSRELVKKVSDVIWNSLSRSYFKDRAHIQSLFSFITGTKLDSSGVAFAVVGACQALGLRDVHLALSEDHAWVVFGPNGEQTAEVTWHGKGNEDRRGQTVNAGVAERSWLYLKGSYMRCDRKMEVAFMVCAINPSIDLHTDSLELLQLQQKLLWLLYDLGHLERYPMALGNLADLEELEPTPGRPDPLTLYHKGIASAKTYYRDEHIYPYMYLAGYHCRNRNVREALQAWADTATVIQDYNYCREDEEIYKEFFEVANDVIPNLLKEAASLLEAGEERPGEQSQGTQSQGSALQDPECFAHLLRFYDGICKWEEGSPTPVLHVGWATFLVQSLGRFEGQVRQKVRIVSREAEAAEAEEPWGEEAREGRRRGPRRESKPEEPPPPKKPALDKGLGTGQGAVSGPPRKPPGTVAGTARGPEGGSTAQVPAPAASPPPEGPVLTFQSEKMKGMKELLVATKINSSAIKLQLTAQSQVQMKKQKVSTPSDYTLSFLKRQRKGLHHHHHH

| Structure (SMILES) | microsomal CLint at 1 μM [1] | IC50 (MEIS1 mRNA) | IC50 [2] | microsomal CLint at 1 μM [3] | IC50 (OCI-AML3 cells) | IC50 (KO-52 cells) |
| --- | --- | --- | --- | --- | --- | --- |
| CCN(C(=O)c1cc(F)ccc1Oc1nncnc1N1CCC2(C1)CN([C@H](CCCN)C(C)C)C2)C(C)C [Compound 1, (R)-2-((5-(2-(6-amino-2-methylhexan-3-yl)-2,6-diazaspiro[3.4]octan-6-yl)-1,2,4-triazin-6-yl)oxy)-N-ethyl-5-fluoro-N-isopropylbenzamide formate] | < 7.5 µL/min/mg | 75 nM | 0.13 nM | 21 µL/min/mg | 170 nM | > 15000 nM |
| CCN(C(=O)c1cc(F)ccc1Oc1nncnc1N1CCC2(C1)CN([C@H](CCCN(C)CCC(=O)N(C)C)C(C)C)C2)C(C)C [Compound 246, (R)-2-((5-(2-(6-((3-(dimethylamino)-3-oxopropyl)(methyl)amino)-2-methylhexan-3-yl)-2,6-diazaspiro[3.4]octan-6-yl)-1,2,4-triazin-6-yl)oxy)-N-ethyl-5-fluoro-N-isopropylbenzamide formate] | – | 180 nM | 0.063 nM | – | 380 nM | > 15000 nM |
| CCN(C(=O)c1cc(F)ccc1Oc1nncnc1N1CCC2(C1)CN([C@H](CCCNCCC(F)F)C(C)C)C2)C(C)C.O=C(O)/C=C/C(=O)O [Compound 114, (R)-2-(5-(2-(6-((3,3-difluoropropyl)amino)-2-methylhexan-3-yl)-2,6-diazaspiro[3.4]octan-6-yl)-1,2,4-triazin-6-yl)oxy)-N-ethyl-5-fluoro-N-isopropylbenzamide fumarate] | 26 µL/min/mg | 22 nM | 0.05 nM | 15 µL/min/mg | 42 nM | 1690 nM |
| CC(C)[C@@H](CCC(C)(C)N)N1CC2(CCN(c3ncnnc3Oc3ccc(F)cc3-c3cncnc3C3CC3)C2)C1 (single isomer, unassigned) [Compound 37, (*R)-5-(6-(6-(2-(4-cyclopropylpyrimidin-5-yl)-4-fluorophenoxy)-1,2,4-triazin-5-yl)-2,6-diazaspiro[3.4]octan-2-yl)-2,6-dimethylheptan-2-amine] | < 7.5 µL/min/mg | 39 nM | 0.12 nM | < 7.5 µL/min/mg | 430 nM | > 15000 nM |
| CCN(C(=O)c1cc(F)ccc1Oc1nncnc1N1CCC2(C1)CN([C@H](CCCNCC(OC)OC)C(C)C)C2)C(C)C.O=C(O)/C=C/C(=O)O [Compound 104, (R)-2-((5-(2-(6-((2,2-dimethoxyethyl)amino)-2-methylhexan-3-yl)-2,6-diazaspiro[3.4]octan-6-yl)-1,2,4-triazin-6-yl)oxy)-N-ethyl-5-fluoro-N-isopropylbenzamide fumarate] | 19 µL/min/mg | 15 nM | 0.074 nM | < 7.5 µL/min/mg | 150 nM | 10700 nM |
| CCN(C(=O)c1cc(F)ccc1Oc1nncnc1N1CCC2(C1)CN([C@H](CCCN[C@H](C)COC)C(C)C)C2)C(C)C.O=C(O)/C=C/C(=O)O [Compound 112, N-ethyl-5-fluoro-N-isopropyl-2-(5(2-((R)-6-(((R)-1-methoxypropan-2-yl)amino)-2-methylhexan-3-yl)-2,6-diazaspiro[3.4]octan-6-yl)-1,2,4-triazin-6-yl)oxy)benzamide fumarate] | 17 µL/min/mg | 9 nM | 0.049 nM | < 7.5 µL/min/mg | 81 nM | > 15000 nM |
| CCN(C(=O)c1cc(F)ccc1Oc1nncnc1N1CCC2(C1)CN([C@H](CCCN(C)CCNC(C)=O)C(C)C)C2)C(C)C.O=C(O)/C=C/C(=O)O [Compound 245, (R)-2-((5-(2-(6-((2-acetamidoethyl)(methyl)amino)-2-methylhexan-3-yl)-2,6-diazaspiro[3.4]octan-6-yl)-1,2,4-triazin-6-yl)oxy)-N-ethyl-5-fluoro-N-isopropylbenzamide fumarate] | 18 µL/min/mg | 140 nM | 0.26 nM | < 7.5 µL/min/mg | 430 nM | > 15000 nM |
| COCCNCCC[C@H](C(C)C)N1CC2(CCN(c3ncnnc3Oc3ccc(F)cc3C(=O)N(C(C)C)C(C)C)C2)C1 (single isomer, unassigned) [Compound 99, (*R)-5-fluoro-N,N-isopropyl-2-((5-(2-(6-((2-methoxyethyl)amino)-2-methylhexan-3-yl)-2,6-diazaspiro[3.4]octan-6-yl)-1,2,4-triazin-6-yl)oxy)benzamide oxalate] | 27 µL/min/mg | 26 nM | 0.2 nM | 13 µL/min/mg | 82 nM | 11500 nM |
